SMILES	melting point
CCC1(CC)c2cc(-c3nc4ccccc4s3)ccc2-c2ccc(N(c3cccc(Oc4ccc([N+](=O)[O-])cc4)c3)c3cccc(Oc4ccc([N+](=O)[O-])cc4)c3)cc21	200 to 201 °C
CC(Oc1ccc(Oc2cnc3cc(Cl)ccc3n2)cc1)C(=O)Nc1ccc(OC(F)(F)CF)cc1 (centres undefined)	137 to 140 °C
COc1ccc(Cl)cc1C(=O)NCCc1ccc([N+](=O)[O-])cc1	159 to 160 °C
COc1cc(OC)cc(N2CCN(C(=O)Nc3nc(C)c(C)nc3OC)CC2)c1	136 to 137 °C
CC(=O)CC(=O)N1CCc2cc(C(O)(C(F)(F)F)C(F)(F)F)ccc21	150 to 151 °C
Nc1c(-c2ccc(-c3ccc(F)cc3F)cc2)nc2ccc(Cl)cc2c1C(=O)O	253 to 254 °C
CS(=O)(=O)Nc1cnn(CCCCN2CCN(c3ncccn3)CC2)c1	132 °C
O=C(O)CCCC/C=C(\c1ccc(C2=N[C@H](C(=O)NCCCCC3CCCCC3)CO2)cc1)c1cccnc1	61 °C
O=C(O)CCCc1c([N+](=O)[O-])cc(O)c(O)c1[N+](=O)[O-]	165 to 170 °C
CCCc1c(OCc2cccn3c(=O)c(C#N)cnc23)ccc(C(C)=O)c1O	233 to 234 °C
CS(=O)c1ccc2nc(C(F)(F)F)nc(Cl)c2c1 (centres undefined)	105 to 107 °C
CC(C)(O)COc1c(-c2ccc(S(N)(=O)=O)cc2)cnn(-c2ccc(F)c(Cl)c2)c1=O	176 to 178 °C
C[C@H](c1ccccc1)n1c(=O)[nH]c2ncc(-c3ccc(-c4nc[nH]n4)cc3)nc21	258 to 260 °C
CCNC(=O)c1ccc(CN2CCN(c3ccncc3)CC2)cc1	213 to 215 °C
Cc1cccc(N2CCOC2=O)c1CNc1cccn2c(Cl)c(C)nc12	137 to 139 °C
O=C(NC1N=C(c2ccccc2F)c2ccccc2N(C(=O)c2ccc(Cl)cc2)C1=O)c1ccc(Cl)cc1 (racemic)	190 to 191 °C
CCC(Cn1nccn1)n1nnc2cc3c(=O)n(C(C)Cn4ncnn4)nnc3cc2c1=O (centres undefined)	162 to 163 °C
O=C(Cc1ccccc1)c1ccc(SCC(F)(F)F)cc1	60 to 61 °C
COc1ccc(C(=O)Nc2ccc(C)c(Cl)c2)cc1NC(=S)Nc1cc(Cl)cc(Cl)c1	195 to 196 °C
CCc1ccc(NS(=O)(=O)c2ccc(N3CCNC3=O)cc2)cc1	195 to 196 °C
CCn1ncc2c1ncc1c(=O)[nH]c3cc(C)nn3c12	285 to 286 °C
CC(C)Oc1c(-c2ccc(S(C)(=O)=O)cc2)cnn(-c2cc(F)ccc2F)c1=O	161 to 164 °C
O=Cc1cc(Cl)cc(C=O)n1	163 °C
OC[C@H]1OC(O)[C@H](O)[C@H](F)[C@@H]1O (some centres undefined)	120 to 122 °C
O=[N+]([O-])C=C1CN=C(c2ccccc2)c2cc(Cl)ccc2N1	184 to 186 °C
O=C(CN1C(=O)c2ccccc2C1=O)c1cc(O)c(O)c([N+](=O)[O-])c1	214 to 216 °C
CCOc1csc(NC(C)=O)c1C#N	242 to 243 °C

Other lines, results leading:

melting point	SMILES
200 to 201 °C	CCC(=O)NC[C@H]1CN(c2ccc(C3CCS(=O)(=O)CC3)c(F)c2)C(=O)O1
122 to 124 °C	O=C1OC(CCO)c2ccccc21 (centres undefined)
153 °C	Cc1ccc2c(c1)c(=O)oc(=O)n2C
143 to 146 °C	Nc1nc(NC2CCc3ccccc32)c2ncn(C3OC(CO)C(O)C3O)c2n1 (centres undefined)
286 to 288 °C	O=C(O)c1cn(C2CC2)c2c(F)c(-n3cnc(-c4ccccc4)c3)c(F)cc2c1=O
82 to 85 °C	Cc1c2n(c3ccccc13)CC(C)(C)C2O (centres undefined)
96 to 97 °C	CC(C)(C)OC(=O)C1=Cc2cc(Br)ccc2OC1
158 to 160 °C	CCOC(=O)c1cn(CC)c2occc2c1=O
73 to 74 °C	CSc1ccc(C(=O)C#CCO)cc1
71 to 73 °C	COc1ccc2c(c1)C(=O)CC(C)(C)O2
128 to 129 °C	COc1ccc(OC(=O)[C@H](C)NC(=O)OCc2ccccc2)cc1
90 to 95 °C	CCOC(=O)C1Cc2c(n(C)c3ccc(OCc4ccccc4)cc23)C1 (centres undefined)

Source: a melting point compilation (Tetko et al.; mined from patent text by program, amines drawn as free bases though some values may be those of a salt)
